Measurements from patent US20220047720A1, “CONJUGATES AND NANOPARTICLES OF HYALURONIC ACID AND EPIGALLOCATECHIN-3-O-GALLATE AND USES THEREOF” (Agency for Science, Technology and Research, priority 2018, published 2022).
Where a name gives a salt, the structure may show the parent alone.

Assays:
NB4 cells = assay: Quantitative evaluation of differentiation in AML cells (CD11b, CD14, CD15 by flow cytometry); format: cell-based, human; details: three days, ATRA, PMA (100 ng/mL), A3D8 (0.6 μg/mL), EGCG (38 μM), HA equivalent
Procedure: AML cells were seeded at 1×10^5 cells in 1 mL per well in 24-well plates and were incubated for 2 h with 5% CO2 at 37° C. […] ATRA (1 mM), PMA (100 ng/mL) and A3D8 (0.6 μg/mL) were included as positive controls. After three days of incubation, the cells were harvested and examined for signs of differentiation by assessing cell surface antigen expression. To label the cell surface antigens, the cells were suspended in PBS (pH 7.4) containing 0.2% (v/v) BSA and then incubated at 4° C. for 30 min with mouse anti-human FITC-conjugated CD11b, Cy7-conjugated CD14 and Cy5-conjugated CD15 antibodies (2 μg/mL each). Mouse IgG1 isotype antibody was used as control. After that, the cells were washed three times with PBS containing 0.2% (v/v) BSA and the level of antibody binding was determined by flow cytometry using a fluorescence-activated cell sorter BD LSR II (BD Biosciences, Calif.). Each measurement comprised of acquisition of at least 1×10^4 cells and the analyses were considered as informative when adequate numbers of events (>100) were collected in the enumeration gates. To quantify the percentage of antigen-expressing cells, the cells were defined to be positive for the antigens if they fell within the gating region pre-set to include <2% of untreated control cells.

MV-4-11 cells = assay: In vitro anti-leukemic activity, CellTiter-Glo assay, and median-effect combination index; format: cell-based; details: 3 days
Procedure: (§3) MOLM-14 and MV-4-11 cells (ATCC, USA) were maintained in RPMI 1640 media supplemented with 10% (v/v) fetal bovine serum (FBS) and 1% (v/v) penicillin/streptomycin. The cells seeded on white-walled 96-well plates (1×10^4 cells per well) were incubated in 100 μL of 10% FBS-supplemented media containing either sunitinib- or sorafenib-loaded nanoparticles and the respective free drugs at various concentrations. […] After treatment for 3 days, 100 μL of the CellTiter-Glo assay reagent was added to each well of the plates. After incubation for 10 min at 25° C., cellular luminescence was measured using a Tecan Infinite 200 microplate reader (Tecan Group, Switzerland). Results were expressed as percentages of the luminescence signal of analysed cells relative to untreated controls.

[1] = system: patient-derived AML cells named Leu 14; assay: Patient-derived AML xenograft mouse model; format: in vivo
Procedure: All animal experiments were performed according to the protocols approved by IACUC at the Biological Resource Centre, Singapore. A pre-clinical patient-derived liquid xenograft mouse model was established based on a previous report (Z. Her, et al., J. Hematol. Oncol. 2017, 10, 162). Briefly, NOD-scid II2rg^−/− (NSG) newborn pups were sub-lethally irradiated at 1 Gy and engrafted with patient-derived AML cells named Leu 14. When the proportion of human CD45^+ cells in peripheral blood reached around 10-15%, the mice were randomly divided into 3 groups. The first group received intravenous injections of isotonic dextrose solution containing Sora-NP-1 at a sorafenib dose of 0.4 mg kg^−1 twice weekly for 4 weeks. For comparison, another group of mice received intravenous injections of free sorafenib solution prepared in saline-DMSO mixture (95:5, v/v) at an equivalent dose. […] At selected time points, the proportion of human CD45^+ cells in the peripheral blood, spleen and bone marrow was examined by flow cytometry analysis using a LSR II flow cytometer (BD Biosciences).

MOLM-14 cells = assay: In vitro anti-leukemic activity, CellTiter-Glo assay, and median-effect combination index; details: 3 days
Procedure: as §3

[2] = Dispersion stability in water (appearance); format: physicochemical; details: suspended in water at the same sorafenib concentration
Source text: Based on the drug loading capacity and particle size, three compositions were selected for in vitro anti-leukemic activity studies (in Example 3) and were named as Sora-NP-1 to Sora-NP-3 (Table 2). Among them, Sora-NP-1 had the smallest particle size with the lowest sorafenib loading capacity. […] This provides indirect evidence that sorafenib molecules were stably encapsulated in the interior of Sora-NP. The excellent dispersion stability of Sora-NP compositions would be beneficial for their clinical applications.

HUVEC cells = assay: In vitro cell viability assay (CellTiter-Glo), normal cells; format: cell-based, human; details: 72 h
Procedure: (§1) The human AML cell line HL60, human embryonic kidney cell line HEK293 and primary human umbilical vein endothelial (HUVEC) cells were purchased from the American Type Culture Collection (ATCC). The human AML cell lines NB4 was kindly donated by the Cancer Science Institute, Singapore. All the AML cells were cultured in RPMI 1640 medium supplemented with 10% fetal bovine serum (FBS) and maintained in density of 2×10^5 to 1×10^6 cells/mL. HEK293 cells were cultured in DMEM medium supplemented with 10% FBS while HUVEC cells were maintained in EBM™-2 Endothelial Cell Growth Basal Medium supplemented with endothelial cell growth medium SingleQuots™ supplements and growth factors. All the cells were maintained in a humid incubator with 5% CO2 at 37° C.
(§2) All cells (HL60, NB4, HEK293 and HUVEC cells) were seeded at 1×10^4 cells per […] per well in 96-well plates. […] After drug treatment, the cell viability was evaluated using the CellTiter-Glo™ Luminescent Cell Viability Assay Kit (Promega, Madison, Wis.) following the manufacturer's instructions. The luminescence from each well was measured using a Tecan Infinite microplate reader (Tecan Group, Switzerland). The final cell viability values were expressed as percentages derived from the luminescence intensity from the treated cells relative to untreated cells. […]

HEK293 cells = assay: as above; format: cell-based, human; details: 72 h
Procedure: as §1, §2

[3] = equivalent sorafenib concentrations
[4] = equivalent sunitinib concentrations

CC1=C(/C=C/C(C)=C/C=C/C(C)=C/C(=O)O)C(C)(C)CCC1 [ATRA, all-trans retinoic acid]
differentiation marker expression (NB4 cells): greatest increase in the three antigen expression levels and the proportion of antigen-expressing cells

CNC(=O)c1cc(Oc2ccc(NC(=O)Nc3ccc(Cl)c(C(F)(F)F)c3)cc2)ccn1 [free sorafenib, Sorafenib tosylate]
order of effectiveness (anti-leukemic activity) (MV-4-11 cells; [3]): Sora-NP-1>Sora-NP-2>Sora-NP-3>free sorafenib
AML cell proliferation in the peripheral blood (human CD45+ cells) ([1]; i.v., sorafenib dose 0.4 mg kg^−1 twice weekly for 4 weeks, versus untreated control): only a slight delay of AML progression
time at which treated mice started to die ([1]; sorafenib dose 0.4 mg kg^−1): 12 to 14 days
cells eradicated / reduction of the cell viability (MOLM-14 cells; 200 nM sorafenib): ~14%
order of effectiveness (anti-leukemic activity) (MOLM-14 cells; [3]): Sora-NP-1>Sora-NP-2>Sora-NP-3>free sorafenib
Appearance of dispersion in water [2]: heavily flocculated and eventually precipitated

CCN(CC)CCNC(=O)c1c(C)[nH]c(/C=C2\C(=O)Nc3ccc(F)cc32)c1C [free sunitinib, Sunitinib malate]
order of effectiveness (anti-leukemic activity) (MV-4-11 cells; [4]): Suni-NP-1>Suni-NP-2>free sunitinib>Suni-NP-3>Suni-NP-4
order of effectiveness (anti-leukemic activity) (MOLM-14 cells; [4]): Suni-NP-1>Suni-NP-2>free sunitinib>Suni-NP-3>Suni-NP-4

Epigallocatechin-3-gallate [EGCG]
EGCG equivalent concentration range with greater toxicity than HA-EGCG (B) (HUVEC cells): 15 to 76 µM
EGCG equivalent concentration with greater toxicity than HA-EGCG (B) (HEK293 cells): 76 µM
